From paper PMC11178787, “Development of a natural product optimization strategy for inhibitors against MraY, a promising antibacterial target” (Nature Communications, 2024)
≈ marks a conversion by molar mass, not a printed value. Where two headings read alike, the source gives them in different places.

Columns and labels:
[1] = test system: T1, E. faecium(VRE) ATCC 51559; assay: microbe, parasite or virus in culture; set-up: CLSI broth microdilution MIC in MHB-II, single trial; details: Enterococcus faecium, 18 h
T1 construct: ATCC 51559 (VRE)
Method: (§1) MICs were determined by a microdilution broth method as recommended by the CLSI with MHB-II. For MICs of stable analogues, a 2-fold dilution of each compound was prepared in DMSO at 100-fold of the final concentration. The strains were inoculated with 5 × 10^5 cfu/mL in 96-well plates (each 100 μL/well), and 1 μL of DMSO solutions of the samples were added (contained less than 1% DMSO). The plates were incubated at 37 °C for 18 h and then MICs were determined. MICs of stable analogues in Table 1 were the highest value in three trials. MICs in Supplementary Table 1 were determined in one trial.

E. faecium ATCC 35667 = test system: T2, E. faecium ATCC 35667; assay: microbe, parasite or virus in culture; set-up: CLSI broth microdilution MIC in MHB-II, single trial; details: Enterococcus faecium, ATCC35667, 18 h
T2 construct: ATCC 35667
Method: as §1

[2] = test system: T3, E. faecalis(VRE) ATCC 51299; assay: microbe, parasite or virus in culture; set-up: CLSI broth microdilution MIC in MHB-II, single trial; details: Enterococcus faecalis, 18 h
T3 construct: ATCC 51299 (VRE)
Method: as §1

S. aureus ATCC 29213 = test system: T4, S. aureus ATCC 29213; assay: microbe, parasite or virus in culture; set-up: CLSI broth microdilution MIC in MHB-II, single trial; details: Staphylococcus aureus, ATCC29213, 18 h
T4 construct: ATCC 29213
Method: as §1

[3] = test system: T5, Staphylococcus aureus MRSA JE2; assay: microbe, parasite or virus in culture; set-up: CLSI broth microdilution MIC in MHB-II, single trial; details: 18 h
T5 construct: JE2 (MRSA)
Method: as §1

[4] = test system: T6, E. faecium(VRE) ATCC 51858; assay: microbe, parasite or virus in culture; set-up: CLSI broth microdilution MIC in MHB-II, single trial; details: Enterococcus faecium, 18 h
T6 construct: ATCC 51858 (VRE)
Method: as §1

[5] = test system: T7, Staphylococcus aureus #2935; assay: microbe, parasite or virus in culture; set-up: CLSI broth microdilution MIC in MHB-II; details: Staphylococcus aureus, 18 h, read-out: MIC
T7 construct: #2935
Method: as §1

Enterococcus faecalis 25 = test system: T8, Enterococcus faecalis 25; assay: microbe, parasite or virus in culture; set-up: CLSI broth microdilution MIC in MHB-II; details: Enterococcus faecalis, 25, 18 h, read-out: MIC
T8 construct: 25
Method: as §1

[6] = test system: T9, Staphylococcus aureus #2110; assay: microbe, parasite or virus in culture; set-up: CLSI broth microdilution MIC in MHB-II; details: Staphylococcus aureus, 18 h, read-out: MIC
T9 construct: #2110
Method: as §1

Enterococcus faecalis 22 = test system: T10, Enterococcus faecalis 22; assay: microbe, parasite or virus in culture; set-up: CLSI broth microdilution MIC in MHB-II; details: Enterococcus faecalis, 22, 18 h, read-out: MIC
T10 construct: 22
Method: as §1

Enterococcus faecalis 21 = test system: T11, Enterococcus faecalis 21; assay: microbe, parasite or virus in culture; set-up: CLSI broth microdilution MIC in MHB-II; details: Enterococcus faecalis, 21, 18 h, read-out: MIC
T11 construct: 21
Method: as §1

Enterococcus faecalis 27 = test system: T12, Enterococcus faecalis 27; assay: microbe, parasite or virus in culture; set-up: CLSI broth microdilution MIC in MHB-II; details: Enterococcus faecalis, 27, 18 h, read-out: MIC
T12 construct: 27
Method: as §1

[7] = test system: T13, Staphylococcus aureus #1958; assay: microbe, parasite or virus in culture; set-up: CLSI broth microdilution MIC in MHB-II; details: Staphylococcus aureus, 18 h, read-out: MIC
T13 construct: #1958
Method: as §1

Enterococcus faecalis 24 = test system: T14, Enterococcus faecalis 24; assay: microbe, parasite or virus in culture; set-up: CLSI broth microdilution MIC in MHB-II; details: Enterococcus faecalis, 24, 18 h, read-out: MIC
T14 construct: 24
Method: as §1

Enterococcus faecium 9 = assay: microbe, parasite or virus in culture; set-up: CLSI broth microdilution MIC in MHB-II; details: Enterococcus faecium, 9, 18 h, read-out: MIC
Method: as §1

Enterococcus faecium 10 = test system: T15, Enterococcus faecium 10; assay: microbe, parasite or virus in culture; set-up: CLSI broth microdilution MIC in MHB-II; details: Enterococcus faecium, 10, 18 h, read-out: MIC
T15 construct: 10
Method: as §1

[8] = test system: T16, Staphylococcus aureus #2933; assay: microbe, parasite or virus in culture; set-up: CLSI broth microdilution MIC in MHB-II; details: Staphylococcus aureus, 18 h, read-out: MIC
T16 construct: #2933
Method: as §1

[9] = test system: T17, Staphylococcus aureus #2934; assay: microbe, parasite or virus in culture; set-up: CLSI broth microdilution MIC in MHB-II; details: Staphylococcus aureus, 18 h, read-out: MIC
T17 construct: #2934
Method: as §1

[10] = test system: T18, Staphylococcus aureus #2310; assay: microbe, parasite or virus in culture; set-up: CLSI broth microdilution MIC in MHB-II; details: Staphylococcus aureus, 18 h, read-out: MIC
T18 construct: #2310
Method: as §1

[11] = test system: T19, Staphylococcus aureus #2071; assay: microbe, parasite or virus in culture; set-up: CLSI broth microdilution MIC in MHB-II; details: Staphylococcus aureus, 18 h, read-out: MIC
T19 construct: #2071
Method: as §1

Enterococcus faecium 1 = assay: microbe, parasite or virus in culture; set-up: CLSI broth microdilution MIC in MHB-II; details: Enterococcus faecium, 1, 18 h, read-out: MIC
Method: as §1

MraYSA (S. aureus MraY) = MraYSA (S. aureus MraY) (Staphylococcus aureus, UniProt Q2FZ93); assay: fluorescence assay of dansylated lipid I formation; type: biochemical
in vitro = assay: in vitro; set-up: WST-8 cell viability assay in HepG2 cells; details: human, hepg2 cells; read-out: IC50
Method: Cells were regularly passed to maintain exponential growth. HepG2 cells were sowed by 1.0 × 10^4 cells for each well in 96-well plate and cultured at 37 °C under 5% CO2 in air for 24 h. The cells were treated with a solution of test compounds in DMSO at various concentration and incubated at 37 °C under 5% CO2 in air for 24 h. After that, the WST-8 (Dojindo) cell proliferation assay was used. Cell viability was indicated as a percentage of the negative control (cells treated with DMSO only) and that value was fixed at 100%.

MraYSA (S. aureus MraY), sequence (Q2FZ93 whole entry): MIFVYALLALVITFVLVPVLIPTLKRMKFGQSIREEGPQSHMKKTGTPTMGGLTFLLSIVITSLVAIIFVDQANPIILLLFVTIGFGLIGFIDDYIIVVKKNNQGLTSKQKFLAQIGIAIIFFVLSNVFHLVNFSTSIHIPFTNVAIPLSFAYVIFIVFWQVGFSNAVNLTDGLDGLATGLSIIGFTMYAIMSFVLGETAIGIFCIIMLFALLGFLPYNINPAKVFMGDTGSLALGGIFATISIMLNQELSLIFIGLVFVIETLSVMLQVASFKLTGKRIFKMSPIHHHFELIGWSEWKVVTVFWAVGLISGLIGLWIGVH

CCCCCCCCCCCCCCCC(=O)N[C@@H](CCCCN)C(=O)NCc1cccc(CN[C@H](C(=O)O)[C@H](O[C@@H]2O[C@H](CN)[C@@H](O)[C@H]2O)[C@H]2O[C@@H](n3ccc(=O)[nH]c3=O)[C@H](O)[C@@H]2O)c1 [compound 2, analogue 2]
MIC ([1]; read-out: 2 MIC): 0.5 µg/mL (≈ 0.535 µM) | MIC (E. faecium ATCC 35667; read-out: 2 MIC): 0.5 µg/mL (≈ 0.535 µM) | MIC ([2]; read-out: 2 MIC): 0.5 µg/mL (≈ 0.535 µM) | MIC (S. aureus ATCC 29213; read-out: 2 MIC): 1 µg/mL (≈ 1.07 µM) | MIC ([3]; read-out: 2 MIC): 1 µg/mL (≈ 1.07 µM) | MIC ([4]; read-out: 2 MIC): 2 µg/mL (≈ 2.14 µM) | MIC [5]: 1 µg/mL (≈ 1.07 µM) | MIC (Enterococcus faecalis 25): 0.25 µg/mL (≈ 0.268 µM) | MIC [6]: 2 µg/mL (≈ 2.14 µM) | MIC (Enterococcus faecalis 22): 0.13 µg/mL (≈ 0.139 µM) | MIC (Enterococcus faecalis 21): 0.13 µg/mL (≈ 0.139 µM) | MIC (Enterococcus faecalis 27): 0.25 µg/mL (≈ 0.268 µM) | MIC [7]: 1 µg/mL (≈ 1.07 µM) | MIC (Enterococcus faecalis 24): 0.25 µg/mL (≈ 0.268 µM) | MIC (Enterococcus faecium 9): 0.5 µg/mL (≈ 0.535 µM) | MIC (Enterococcus faecium 10): 1 µg/mL (≈ 1.07 µM) | MIC [8]: 0.5 µg/mL (≈ 0.535 µM) | MIC [9]: 0.5 µg/mL (≈ 0.535 µM) | MIC [10]: 2 µg/mL (≈ 2.14 µM) | MIC [11]: 1 µg/mL (≈ 1.07 µM) | MIC (Enterococcus faecium 1): 1 µg/mL (≈ 1.07 µM) | IC50 (MraYSA (S. aureus MraY)): 0.0059 µM | CC50 at 24 h (in vitro): 16 µM

CCCCCCCCCCCCCCCC(=O)N[C@@H](CCCNC(=N)N)C(=O)NCc1cccc(CN[C@H](C(=O)O)[C@H](O[C@@H]2O[C@H](CN)[C@@H](O)[C@H]2O)[C@H]2O[C@@H](n3ccc(=O)[nH]c3=O)[C@H](O)[C@@H]2O)c1 [compound 4, analogue 4]
MIC ([1]; read-out: 4 MIC): 1 µg/mL (≈ 1.04 µM) | MIC (E. faecium ATCC 35667; read-out: 4 MIC): 0.5 µg/mL (≈ 0.52 µM) | MIC ([2]; read-out: 4 MIC): 0.25 µg/mL (≈ 0.26 µM) | MIC (S. aureus ATCC 29213; read-out: 4 MIC): 1 µg/mL (≈ 1.04 µM) | MIC ([3]; read-out: 4 MIC): 2 µg/mL (≈ 2.08 µM) | MIC ([4]; read-out: 4 MIC): 2 µg/mL (≈ 2.08 µM) | MIC [5]: 2 µg/mL (≈ 2.08 µM) | MIC (Enterococcus faecalis 25): 0.25 µg/mL (≈ 0.26 µM) | MIC [6]: 4 µg/mL (≈ 4.16 µM) | MIC (Enterococcus faecalis 22): 0.13 µg/mL (≈ 0.135 µM) | MIC (Enterococcus faecalis 21): 0.13 µg/mL (≈ 0.135 µM) | MIC (Enterococcus faecalis 27): < 0.06 µg/mL | MIC [7]: 2 µg/mL (≈ 2.08 µM) | MIC (Enterococcus faecalis 24): 0.13 µg/mL (≈ 0.135 µM) | MIC (Enterococcus faecium 9): 0.5 µg/mL (≈ 0.52 µM) | MIC (Enterococcus faecium 10): 1 µg/mL (≈ 1.04 µM) | MIC [8]: 1 µg/mL (≈ 1.04 µM) | MIC [9]: 1 µg/mL (≈ 1.04 µM) | MIC [10]: 2 µg/mL (≈ 2.08 µM) | MIC [11]: 1 µg/mL (≈ 1.04 µM) | MIC (Enterococcus faecium 1): 1 µg/mL (≈ 1.04 µM) | IC50 (MraYSA (S. aureus MraY)): 0.005 µM | CC50 at 24 h (in vitro): 19 µM
